In patent US20220370450A1, “CONTROLLED-RELEASE COMPOSITION FOR ORAL ADMINISTRATION COMPRISING COMPLEX OF ALPHA ADRENERGIC BLOCKER COMPOUND AND CLAY MINERAL” (Korea Institute Of Geoscience And Mineral Resources, priority 2019, published 2022):

What was measured:
[1] = Drug release experiment using a semi-permeable membrane; type: physicochemical; conditions: for elution rate: in both pH 1.2 and 7.8; for time within which most of the drug was released / drug released within initial 1 hour: semi-permeable membrane bag, cut-off 12,000 to 14,000 Da, 37° C.; for drug released within initial 1 hour: eluate pH 1.2 or pH 7.8; for release rate (membrane release amount of drug per unit time) of the drug solution relative to the drug-bentonite complex dispersion solution: semi-permeable membrane cut-off 12,000 to 14,000 Da
Method: The amount of the drug-bentonite complex was adjusted so that the drug final concentration inside the elution system became 1 μg/ml. At this time, as the eluate, a 0.1 N hydrochloric acid solution of pH 1.2 and a phosphate buffer of pH 7.8 were used and the elution was performed while maintaining 37° C. While the eluate outside the semi-permeable membrane was partially taken by time and the same amount of eluate was compensated, the experiment was conducted, and the drug concentration of the taken sample was analyzed using high performance liquid chromatography.

[2] = rat, in vivo, po, 1 mg/kg
Method: (§1) The breeding conditions of the experimental animals were as follows.
(§2) After the femoral region of the fixed rat was shaved, the blood-gathering was prepared by injecting a cannula. A drug-bentonite complex dispersion solution as an experimental group and a drug aqueous solution as a control group were administered using an oral zonde and then a certain amount of plasma was collected through the cannula for each predetermined time and the plasma drug concentration was measured.
(§3) The drug concentrations in the plasma samples were analyzed using a mass spectrometer.

[3] = in vivo; conditions: Sprague-Dawley, rat, po, 1 mg/kg
Method: as §1, §2, §3

release amount of the drug solution relative to the complex dispersion solution ([1]; after 4 hours of the test)	elution rate [1]	time within which most of the drug was released [1] [h]	drug released within initial 1 hour [1] [%]	release rate (membrane release amount of drug per unit time) of the drug solution relative to the drug-bentonite complex dispersion solution [1]	time within which the plasma concentration reached the maximum plasma concentration (Cmax) [2] [min]	AUC(0-t) [3] [ng·h/mL]	Cmax [3] [ng/mL]	Tmax [3] [min]	bioavailability [3] [%]	release amount of the drug solution relative to the complex dispersion solution ([1]; after 2 hours of the test, pH 1.2)	release amount of the drug solution relative to the complex dispersion solution ([1]; after 2 hours of the test, pH 7.8)	Compound
two times larger	fast elution rate	≤ 4	≥ 50	two times larger	30 to 60	186 ± 54.7	67.3 ± 14.2	45 ± 15	100	–	–	COc1cc2nc(N3CCN(C(=O)C4COc5ccccc5O4)CC3)nc(N)c2cc1OC (centres unmarked) [Doxazosin, doxazosin]
–	fast elution rate	≤ 4	≥ 70	larger	–	247 ± 45.1	129 ± 36.2	22.8 ± 7.8	100	two times larger	significantly larger	COc1cc2nc(N3CCN(C(=O)c4ccco4)CC3)nc(N)c2cc1OC [Prazosin, prazosin]
